Patent US8512964B2, “Targets for treatment of hypercholesterolemia” (The Regents of the University of California, priority 2008, dated 2013)
Residues, ends and D or L forms follow the SMILES beside them. *: point of attachment. Cbz = O=C(OCc1ccccc1)*

Assays:
LDLR [1] = assay: LDLR ubiquitination in HEK293 cells co-transfected with LDLR, Mylip and HA-Ubiquitin; assay type: cell-based; settings: 25 μM for 6 h, FIG. 3G
Experimental: Primary hepatocytes were isolated and maintained as previously reported (Pei et al. (2006) Nat Med 12: 1048). HEK293T cells were transfected using lipofectamine2000 (invitrogen). Typically, 0.8×10^6 cells were seeded in a 60 mm well and transfected the following day with 2 μg DNA. In experiments testing the ability of Mylip to degrade other potential protein targets a ratio of 3:1 (Mylip:target) was used. To infect MEFs and SV589 with adenovirus cells were seeded (0.2×10^6 cells/60 mm well) and infected the following day at an MOI of 300. HepG2 cells were infected at an MOI of 80. Primary hepatocytes were infected 4 hrs after plating at an MOI of 20. Infections were allowed to proceed for 18 hrs after which culture medium was replaced. Under these conditions more than 90% of the cells were transduced as assessed by GFP immunofluorescence. Where indicated, cells were subsequently sterol starved by incubating cells in DMEM supplemented with 10% LPDS, 5 μM Simvastatin, and 100 μM Mevalonic acid for an additional 18 hrs (sterol deficient medium).
(§1) Total cell or tissue lysates were prepared in RIPA buffer (150 mM NaCl, 1% NP-40, 0.1% Sodium Deoxycholate, 0.1% SDS, 100 mM Tris-HCl, pH 7.4) supplemented with protease inhibitors (Roche Molecular Biochemicals). […] Protein concentration of the cleared lysates was determined using the Bradford assay (Biorad) with BSA as reference. […]

LDLR [2] = assay: Immunoblot of LDLR protein in immortalized Lxrαβ(−/−) MEFs stably expressing LXRα or vector control; assay type: cell-based, mouse; settings: Lxrαβ(−/−) MEFs with LXRα or vector control, sterol depletion medium, FIG. 1E
Experimental: The cell lines HEK293T, HepG2, and SV589 were obtained from ATCC. HEK293T were cultured in Optimem containing 2% FBS. HepG2 and SV589 were cultured in DMEM supplemented with 10% FBS. immortalized Lxrαβ^(−/−) mouse embryonic fibroblasts (MEFs) were obtained by immortalizing E13.5 MEFs with a SV40 Large-T antigen retrovirus. To reconstitute mLxrα we transfected Phenix cells with pBabehygro or pBabehygro-mLxra. The resulting supernatant containing the corresponding retroviral particles was used to infect immortalized MEFs. Cells were selected in 800 μg/mL Hygromycin and surviving cells were used. HepG2-LDLR-GFP cells were generated by transfecting HepG2 cells with pEGFP-N1-LDLR and selecting cells with G418 (800 μg/mL).
Primary hepatocytes were isolated and maintained as previously reported (Pei et al. (2006) Nat Med 12: 1048). HEK293T cells were transfected using lipofectamine2000 (invitrogen). […] Under these conditions more than 90% of the cells were transduced as assessed by GFP immunofluorescence. […]
as §1

HepG2 cells = assay: BODIPY-LDL binding and uptake assay in HepG2 cells; assay type: cell-based; settings: 1 μM ligand, FIG. 1A
Experimental: HepG2 cells were plated at density of 40,000 cells/well. On the following day the cells were pre-treated for 8 hrs with DMSO, 1 μM GW3965, or 1 μM T0901317 in DMEM supplemented with 10% FBS. MEFs (DKO-mLxra) were plated similarly and infected on the following day with the indicated adenovirus (MOI 300) for 18 hrs. Subsequently, cells were washed twice with PBS and incubated for an additional 16 hrs in sterol deficient medium to induce expression of the LDLR. In experiments with HepG2 cells the sterol deficient medium further contained the LXR synthetic ligands indicated above. Uptake was initiated by incubating cells in 200 μl of serum deficient medium containing 5 μg/mL of BODIPY-LDL. For measuring binding of BODIPY-LDL to cells, plates were placed on ice prior to processing. Uptake of BODIPY-LDL was measured after a 30 minute incubation period at 37° C. At that point cells were washed 2× with PBS containing 0.2% BSA and lysed in 100 μl RIPA buffer supplemented with protease inhibitors. Lysates were collected and cleared by centrifugation and 30 μl of cleared lysate was transferred into a 384 well plate and measured on a Typhoon apparatus (Amersham) with filters set for BODIPY. The protein concentration of the cleared lysates was determined and results are presented as relative fluorescence normalized for protein content.

Mylip = Mylip expression in vivo after gavage of mice (realtime PCR); design: species or system mouse; settings: mice gavaged 20 mg/kg twice daily for three days, FIG. 2C
Experimental: Total RNA was isolated from cells and mouse tissues using Trizol (Invitrogen). One microgram of total RNA was reverse transcribed with random hexamers using iScript reverse transcription reagents kit (Biorad). Sybergreen (Diagenode) real-time quantitative PCR assays were performed using an Applied Biosystems 7900HT sequence detector.

Mylip LXRE = assay: Mylip promoter (LXRE) reporter assay in HEK293 cells transfected with LXR and RXR; assay type: cell-based, mouse; settings: activation by LXRa and GW3965, functional LXRE, FIG. 6D
Experimental: A 10 Kb promotor region upstream of the mMylip transcription initiation site was analyzed for the presence of LXR binding elements. A consensus DR4 site was identified 2454 upstream of the transcription initiation site. Olignoucleotides encompassing this element were designed, annealed and tested for binding to LXR/RXR heterodimers in a standard EMSA assay. A 2.5 kB promotor fragment upstream of the transcription initiation site containing the identified LXRE was amplified by PCR from BAC clone RP23-17N24 using mMylip-prom-FWD […] (SEQ ID NO:20) or mMylip-prom-ΔFWD […] (SEQ ID NO:21) with the common antisense primer mMylip-prom-REV […] (SEQ ID NO:22). Amplified fragments were cloned as SacI/XhoI fragments into pGL3 basic (Promega). Promotor analysis was done as previously described (Joseph et al. (2002) J Biol Chem 277: 11019).

Structure (SMILES) | LDLR protein (LDLR [2]) | binding and uptake of bodipy labeled-LDL (HepG2 cells) | also measured
CC(C)C[C@@H](C=O)NC(=O)[C@H](CC(C)C)NC(=O)[C@H](CC(C)C)NC(=O)OCc1ccccc1 [MG132] (Cbz-Leu-Leu-Leu-aldehyde) | – | – | Mylip expression (LDLR [1]): greatly stabilizing; Mylip-dependent level of LDLR ubiquitination (LDLR [1]): did not increase
CC(C)CC[C@@H](O)[C@@H](C)[C@H]1CC[C@H]2[C@@H]3CC=C4C[C@@H](O)CC[C@]4(C)[C@H]3CC[C@]12C [22(R)-hydroxycholesterol] | decreased LDLR protein in the absence or presence of LXRs | – | –
O=S(=O)(c1ccccc1)N(CC(F)(F)F)c1ccc(C(O)(C(F)(F)F)C(F)(F)F)cc1 [T0901317] | – | decreased | –
O=C(O)Cc1cccc(OCCCN(Cc2cccc(C(F)(F)F)c2Cl)CC(c2ccccc2)c2ccccc2)c1 [GW3965] | decreased LDLR only in cells expressing LXRα | decreased | Mylip expression in vivo (Mylip): induced; increase in reporter activity (Mylip LXRE): ~4 fold
